Test results: ChEMBL document CHEMBL4334435, “A focused structure-activity relationship study of psoralen-based immunoproteasome inhibitors” (Medchemcomm, 2019)
Activity calls are given as the source filed them. The calls are words filed in the database; no cut-off is given here.

How the values were obtained:
PBMC [1] = assay: Inhibition of LPS-induced IL-8 production in human PBMC at 50 nM preincubated for 1 hr followed by LPS addition and measured after 24 hrs by cytometric bead array-based FACS analysis; type: functional, cell-based
PBMC [2] = assay: Inhibition of LPS-induced IL-6 secretion in human PBMC at 50 nM preincubated for 1 hr followed by LPS addition and measured after 24 hrs by cytometric bead array-based FACS analysis; type: functional, cell-based
PBMC [3] = assay: Inhibition of LPS-induced TNFalpha production in human PBMC at 50 nM preincubated for 1 hr followed by LPS addition and measured after 24 hrs by cytometric bead array-based FACS analysis; type: functional, cell-based
[4] = target: T1, Proteasome subunit beta type-8 (Homo sapiens) (UniProt P28062); assay: Reversible inhibition of human immunoproteasome beta 5i subunit assessed as recovery of enzyme activity at 45 nM using Suc-LLVY-AMC as substrate preincubated for 30 mins followed by 100-fold diluted substrate addition by rapid dilution assay relative to control; design: scale not given: the % may be the effect or the level left
T1 sequence (whole entry): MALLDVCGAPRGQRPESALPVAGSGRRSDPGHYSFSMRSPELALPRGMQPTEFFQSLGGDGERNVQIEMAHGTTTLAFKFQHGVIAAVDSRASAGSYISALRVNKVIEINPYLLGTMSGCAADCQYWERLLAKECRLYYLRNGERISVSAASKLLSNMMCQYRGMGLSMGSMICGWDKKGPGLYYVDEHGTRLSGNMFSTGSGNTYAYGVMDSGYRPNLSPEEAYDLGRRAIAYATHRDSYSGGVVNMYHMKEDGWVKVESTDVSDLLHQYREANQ

PBMC [5] = assay: Inhibition of LPS-induced IL-10 secretion in human PBMC at 50 nM preincubated for 1 hr followed by LPS addition and measured after 24 hrs by cytometric bead array-based FACS analysis; type: functional, cell-based
PBMC [6] = assay: Inhibition of LPS-induced IL-1beta production in human PBMC at 50 nM preincubated for 1 hr followed by LPS addition and measured after 24 hrs by cytometric bead array-based FACS analysis; type: functional, cell-based
PBMC [7] = assay: Inhibition of LPS-induced IL-12p70 production in human PBMC at 50 nM preincubated for 1 hr followed by LPS addition and measured after 24 hrs by cytometric bead array-based FACS analysis; type: functional, cell-based

For `CC(C)(C)ONC(=O)C[C@H](NC(=O)CCc1ccccc1)C(=O)N[C@@H](Cc1ccc(F)cc1)C(=O)NCc1cccc2ccccc12`, the inhibition (PBMC [1]) was “inactive”, the inhibition (PBMC [2]) was “Active” and the inhibition (PBMC [3]) was “inactive”. The Activity [4] was 100%, the inhibition (PBMC [5]) was “Active” and the inhibition (PBMC [6]) was “inactive”. For the same compound, the inhibition (PBMC [7]) was “inactive”.
